According to US20060019936A1 (priority 2004, published 2006):
“Also recorded” adds a separate entry of the source. Where two headings read alike, the source gives them in different places.

Columns and labels:
[1] = tested on: MCF-7 (ER+) breast cancer cells; experiment: Toxicity toward MCF-7 breast cancer cells; assay type: cell-based
rabbit uterine ER = molecular target: T1, rabbit uterine ER (Oryctolagus cuniculus, UniProt G1SML6); experiment: Radiometric competitive binding assay for the ER (RBA); details: RBA for estradiol is 100
T1 construct: from tissue; host or cells: rabbit uterus
T1 sequence (G1SML6 1-598): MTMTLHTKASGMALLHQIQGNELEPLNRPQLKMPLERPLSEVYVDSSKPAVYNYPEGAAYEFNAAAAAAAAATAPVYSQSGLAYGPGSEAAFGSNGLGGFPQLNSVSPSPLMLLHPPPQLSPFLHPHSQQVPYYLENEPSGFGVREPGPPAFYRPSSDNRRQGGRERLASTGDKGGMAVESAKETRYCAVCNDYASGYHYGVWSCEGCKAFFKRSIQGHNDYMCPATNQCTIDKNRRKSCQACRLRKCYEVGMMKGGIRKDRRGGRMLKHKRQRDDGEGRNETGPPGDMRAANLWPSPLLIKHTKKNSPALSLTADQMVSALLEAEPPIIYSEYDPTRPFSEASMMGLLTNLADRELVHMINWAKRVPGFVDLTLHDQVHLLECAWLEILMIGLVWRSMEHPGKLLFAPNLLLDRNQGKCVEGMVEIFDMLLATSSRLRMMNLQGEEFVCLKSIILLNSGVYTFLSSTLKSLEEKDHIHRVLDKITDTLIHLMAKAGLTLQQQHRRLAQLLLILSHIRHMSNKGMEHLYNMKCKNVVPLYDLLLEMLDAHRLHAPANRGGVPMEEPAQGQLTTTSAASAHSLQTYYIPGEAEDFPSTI

[2] = molecular target: T2, portion of the ER containing the estradiol binding site (Homo sapiens, UniProt P03372); experiment: Electrophoretic gel mobility shift assay of DNA adducts with ER
T2 sequence (P03372 311-547 limits assumed): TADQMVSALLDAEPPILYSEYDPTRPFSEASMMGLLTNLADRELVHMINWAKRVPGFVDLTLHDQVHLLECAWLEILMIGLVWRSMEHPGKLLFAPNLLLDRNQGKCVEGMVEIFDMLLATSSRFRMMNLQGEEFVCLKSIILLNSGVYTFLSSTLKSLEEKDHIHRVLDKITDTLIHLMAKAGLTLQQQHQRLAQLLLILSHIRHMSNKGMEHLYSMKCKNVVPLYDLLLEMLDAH

[3] = tested on: MDA-MB231 (ER−) breast cancer cells; assay type: cell-based
[4] = tested on: self complementary octamer deoxyoligonucleotide; experiment: Reactivity with DNA (piperidine labile sites); assay type: biochemical
[5] = pH 7.4

SMILES	differential toxicity MCF-7 (ER+) versus MDA-MB231 (ER−) ([1]; comparison of the two cell lines)	relative binding affinity (RBA) for the ER (rabbit uterine ER)	complex formation of covalent DNA adducts with ER ([2]; gel mobility shift, band eliminated by excess estradiol)	toxicity at the highest dose [1]	toxicity at the highest dose [3]	complex formation of covalent DNA adducts with ER [2]	toxicity [1]	toxicity [3]	DNA modification, cleaved by piperidine [4]	logD [5]	differential toxicity MCF-7 (ER+) versus MDA-MB231 (ER−) [1]
CC12CCC3c4ccc(O)cc4CC(CCCCCCNCCOC(=O)NCCCc4ccc(N(CCCl)CCCl)cc4)C3C1CCC2O (stereo not drawn) [Compound 1, 7α-{N-(2-(N-((N,N-bis-2-chloroethylaminophenyl)propyl)-carbamoyloxy)ethyl)aminohexyl}-3,17β-dihydroxyestra-1,3,5(10)-triene]	significantly more toxic toward MCF-7 cells than MDA-MB231 cells; also recorded: largest differential toxicity	excellent affinity	form complexes; also recorded: greatest affinity for the ER-LBD								
CC12CCC3c4ccc(O)cc4CC(CCCCCCNCCNC(=N)NCCCc4ccc(N(CCCl)CCCl)cc4)C3C1CCC2O (stereo not drawn) [Compound 5]		low RBAs		neither compound showed significant toxicity	neither compound showed significant toxicity	form complexes; also recorded: virtually all of the modified oligonucleotide formed a slowly migrating band					
CC12CCC3c4ccc(O)cc4CC(CCCCCCNC(=N)NCCCc4ccc(N(CCCl)CCCl)cc4)C3C1CCC2O (stereo not drawn) [Compound 7]		comparable affinities		neither compound showed significant toxicity	neither compound showed significant toxicity	form complexes					
CC12CCC3c4ccc(O)cc4CC(CCCCCCOC(=O)NCCCc4ccc(N(CCCl)CCCl)cc4)C3C1CCC2O (stereo not drawn) [Compound 9]		low RBAs					low toxicity	low toxicity	3%	> 5	
O=P(NCCO)(c1ccccc1)c1ccccc1 [Compound 12]		comparable affinities					low toxicity	low toxicity		high logD values	
CC(C)(C)[Si](C)(C)OCCNP(=O)(c1ccccc1)c1ccccc1 [Compound 13]		comparable affinities				form complexes	toxicity similar to that of 1	toxicity similar to that of 1	79%		greater toxicity toward the ER-positive MCF-7 cells
CC12CCC3c4ccc(O)cc4CC(CCCCCCNC(=O)CCCc4ccc(N(CCCl)CCCl)cc4)C3C1CCC2O (stereo not drawn) [Compound 14]		low RBAs					low toxicity	low toxicity	14%	> 5	
CC12CCC3c4ccc(O)cc4CC(CCCCCCNCCCCc4ccc(N(CCCl)CCCl)cc4)C3C1CCC2O (stereo not drawn) [Compound 15]		40				form complexes	toxicity similar to that of 1	toxicity similar to that of 1			greater toxicity toward the ER-positive MCF-7 cells
